Assay results taken from PubChem BioAssay AID2060893 (Molecular Pharmacology Branch, DTP, NCI, 2025).
Several values for one entry are separate records, joined by “and”; a condition that tells them apart may be missing. Equal values may be shown once.

Test system: K86415-001-R-J1-PDC complex spheroids, viability
Test: Anticancer human tumor K86415-001-R-J1-PDC patient-derived lung adenocarcinoma cell line growth inhibition [RAS]
Conditions: for viability, T/C: stronger effect = lower value; active means viability on the fitted dose curve at most 10% of control; inactive means the rest
Procedure, shortened: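 Multi-cell-type spheroids: tumor cells plus HUVEC endothelial cells and mesenchymal stem cells. RAS-pathway inhibitors were combined with targeted agents, each dosed in half-log steps down from clinical Cmax, or from 10 microM when Cmax was unknown.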

[1] = curve of first compound, second compound 0.0316 µM
[2] = curve of first compound, second compound 0.1 µM
[3] = curve of first compound, second compound 0.316 µM
[4] = curve of first compound, second compound 1 µM
[5] = second compound 0.0316 µM, first compound 0.0316 µM
[6] = second compound 0.0316 µM, first compound 0.1 µM
[7] = second compound 0.1 µM, first compound 0.0316 µM
[8] = second compound 0.1 µM, first compound 0.1 µM
[9] = second compound 0.316 µM, first compound 0.0316 µM
[10] = second compound 0.316 µM, first compound 0.1 µM
[11] = second compound 1 µM, first compound 0.0316 µM
[12] = second compound 1 µM, first compound 0.1 µM
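Further: spheroids exposed to agents for seven days before readout.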

NC1c2ccccc2OC12CCN(c1cnc3c(N4CCCc5ncccc54)n[nH]c3n1)CC2 (centres undefined) + C#Cc1c(F)ccc2cc(O)cc(-c3ncc4c(N5CC6CCC(C5)N6)nc(OCC56CCCN5CC(F)C6)nc4c3F)c12
active: viability, T/C (second compound 0.316 µM, first compound 1 µM) 8.85% | viability, T/C (second compound 0.316 µM, first compound 3.16 µM) 10.4% | viability, T/C (second compound 0.316 µM, first compound 10 µM) 8.35% | viability, T/C (second compound 1 µM, first compound 0.316 µM) 8.78% | viability, T/C (second compound 1 µM, first compound 1 µM) 7.65% | viability, T/C (second compound 1 µM, first compound 3.16 µM) 5.83% | viability, T/C (second compound 1 µM, first compound 10 µM) 5.6% | viability, T/C (second compound 3.16 µM, first compound 0.1 µM) 7.32% | viability, T/C (second compound 3.16 µM, first compound 0.316 µM) 5.29% | viability, T/C (second compound 3.16 µM, first compound 1 µM) 4.36% | viability, T/C (second compound 3.16 µM, first compound 3.16 µM) 4.13% | viability, T/C (second compound 3.16 µM, first compound 10 µM) 5.5% | viability, T/C (second compound 10 µM, first compound 0.0316 µM) 7.06% | viability, T/C (second compound 10 µM, first compound 0.1 µM) 4.42% | viability, T/C (second compound 10 µM, first compound 0.316 µM) 3.79% | viability, T/C (second compound 10 µM, first compound 1 µM) 3.47% | viability, T/C (second compound 10 µM, first compound 3.16 µM) 4% | viability, T/C (second compound 10 µM, first compound 10 µM) 4.4%
inactive: viability, T/C [5] 34.9% | viability, T/C [6] 25.9% | viability, T/C (second compound 0.0316 µM, first compound 0.316 µM) 18.1% | viability, T/C (second compound 0.0316 µM, first compound 1 µM) 14.8% | viability, T/C (second compound 0.0316 µM, first compound 3.16 µM) 17.4% | viability, T/C (second compound 0.0316 µM, first compound 10 µM) 15.8% | viability, T/C [7] 36.4% | viability, T/C [8] 23.2% | viability, T/C (second compound 0.1 µM, first compound 0.316 µM) 16.8% | viability, T/C (second compound 0.1 µM, first compound 1 µM) 13.9% | viability, T/C (second compound 0.1 µM, first compound 3.16 µM) 12.5% | viability, T/C (second compound 0.1 µM, first compound 10 µM) 12.4% | viability, T/C [9] 28.2% | viability, T/C [10] 18.1% | viability, T/C (second compound 0.316 µM, first compound 0.316 µM) 11.8% | viability, T/C [11] 17.7% | viability, T/C [12] 11.2% | viability, T/C (second compound 3.16 µM, first compound 0.0316 µM) 9.96%
< 31.6 nM: IC50 [1] | IC50 [2] | IC50 [3] | IC50 [4] | IC50 (curve of first compound, second compound 3.16 µM) | IC50 (curve of first compound, second compound 10 µM)

C=CC(=O)N1CCN(c2nc(OCC3CCCN3C)nc3c(F)c(-c4nc(N)cc(C)c4C(F)(F)F)c(Cl)cc23)C(C)C1 (centres undefined)
inactive: viability, T/C (compound 0.00316 µM) 18.3% [middle of 12 runs] | viability, T/C (compound 0.01 µM) 13.4% [middle of 12 runs] | viability, T/C (compound 0.0316 µM) 11.5% [middle of 12 runs]
10.7% [middle of 11 runs]: viability, T/C (compound 1 µM)
9.89% [middle of 12 runs]: viability, T/C (compound 0.1 µM)
< 3.16 nM: IC50 (compound alone, run of 07/15/2024) | IC50 (curve of compound)
10.8% [middle of 12 runs]: viability, T/C (compound 0.316 µM)

CC(C)n1nc(-c2ccc3oc(N)nc3c2)c2c(N)ncnc21 + C=CC(=O)N1CCN(c2nc(OCC3CCCN3C)nc3c(F)c(-c4nc(N)cc(C)c4C(F)(F)F)c(Cl)cc23)C(C)C1
inactive: viability, T/C (second compound 0.00316 µM, first compound 0.000316 µM) 18.4% | viability, T/C (second compound 0.00316 µM, first compound 0.001 µM) 17.5% | viability, T/C (second compound 0.00316 µM, first compound 0.00316 µM) 16.8% | viability, T/C (second compound 0.00316 µM, first compound 0.01 µM) 19.4% | viability, T/C (second compound 0.00316 µM, first compound 0.0316 µM) 31.8% | viability, T/C (second compound 0.00316 µM, first compound 0.1 µM) 12.5% | viability, T/C (second compound 0.01 µM, first compound 0.000316 µM) 11.8% | viability, T/C (second compound 0.01 µM, first compound 0.001 µM) 11.1% | viability, T/C (second compound 0.01 µM, first compound 0.00316 µM) 11.4% | viability, T/C (second compound 0.01 µM, first compound 0.01 µM) 9% | viability, T/C (second compound 0.01 µM, first compound 0.0316 µM) 18.9% | viability, T/C (second compound 0.01 µM, first compound 0.1 µM) 6% | viability, T/C (second compound 0.0316 µM, first compound 0.000316 µM) 10.9% | viability, T/C (second compound 0.1 µM, first compound 0.000316 µM) 10.5% | viability, T/C (second compound 0.316 µM, first compound 0.000316 µM) 10.1%
active: viability, T/C (second compound 0.0316 µM, first compound 0.001 µM) 9.65% | viability, T/C (second compound 0.0316 µM, first compound 0.00316 µM) 8.36% | viability, T/C (second compound 0.0316 µM, first compound 0.01 µM) 8% | viability, T/C [5] 8.61% | viability, T/C [6] 4.33% | viability, T/C (second compound 0.1 µM, first compound 0.001 µM) 7.96% | viability, T/C (second compound 0.1 µM, first compound 0.00316 µM) 7.44% | viability, T/C (second compound 0.1 µM, first compound 0.01 µM) 7.78% | viability, T/C [7] 5.11% | viability, T/C [8] 3.67% | viability, T/C (second compound 0.316 µM, first compound 0.001 µM) 8.76% | viability, T/C (second compound 0.316 µM, first compound 0.00316 µM) 9.08% | viability, T/C (second compound 0.316 µM, first compound 0.01 µM) 8.68% | viability, T/C [9] 6.52% | viability, T/C [10] 3.86% | viability, T/C (second compound 1 µM, first compound 0.000316 µM) 8.74% | viability, T/C (second compound 1 µM, first compound 0.001 µM) 8.53% | viability, T/C (second compound 1 µM, first compound 0.00316 µM) 8.04% | viability, T/C (second compound 1 µM, first compound 0.01 µM) 8.63% | viability, T/C [11] 6.85% | viability, T/C [12] 2.72%
< 0.316 nM: IC50 (curve of first compound, second compound 0.00316 µM) | IC50 (curve of first compound, second compound 0.01 µM) | IC50 [1] | IC50 [2] | IC50 [3] | IC50 [4]

CCC(CC)c1cc(NC2CCC(N)C2)n2nccc2n1 (centres undefined)
active: viability, T/C (compound 3.16 µM) 3.47% [middle of 4 runs] | viability, T/C (compound 10 µM) 3.37% [middle of 4 runs]
inactive: viability, T/C (compound 0.0316 µM) 106% and 116% (2×) and 92.8% | viability, T/C (compound 0.1 µM) 115% [middle of 4 runs] | viability, T/C (compound 0.316 µM) 122% [middle of 4 runs] | viability, T/C (compound 1 µM) 100% [middle of 4 runs]
1.82 µM [middle of 4 runs]: IC50 (curve of compound)
